Measured values from patent US20240398969A1, “ANTIBODY-DRUG CONJUGATES FOR TREATING INFECTIONS OF HUMAN IMMUNODEFICIENCY VIRUS (HIV)” (priority 2023, published 2024).
pIC50: −log10 of the molar value. Read-outs that look alike come from different tables or passages of the source.

Tests used:
Assay type in all cases: cell-based
HDAC [1] = assay: Cellular HDAC enzymatic assay (FLUOR DE LYS HDAC fluorometric cellular activity assay) in CD4 enriched Jurkat T cells
Description: (§1) Cellular HDAC enzymatic assay was conducted for 3 days with the CD4 enriched Jurkat T lymphocyte cells or B lymphocyte cells treated with various amounts of drugs using FLUOR DE LYS® HDAC fluorometric cellular activity assay kit (Enzo Life Sciences, Inc., cat. No: BML-AK503-0001). The assay was performed following the manufacturer's instructions. […] The Fluor de Lys substrate was added in a culture media. After 30 min 37° C., 1 volume of the developer was added. After 15 min 37° C., the fluorophore was excited with 355 nm light and the emitted light (450 nm) was being detected on a fluorometric plate reader (Clariostar: BMG, Buckinghamshire, UK). For each experiment, controls (containing CD4 enriched Jurkat T lymphocyte cells or Ramos B lymphocyte cells and buffer), a blank incubation (containing buffer but no CD4 enriched Jurkat T lymphocyte cells or Ramos B lymphocyte cells) and samples (containing compound dissolved in DMSO or ADCs dissolved in PBS and further diluted in medium) were run in parallel. In each test the blank value was subtracted from both the control and the sample values. The control sample represented 100% of substrate deacetylation. For each sample the fluorescence was expressed as a percentage of the mean value of the controls.

[2] = tested on: Ramos(human B lymphocyte); assay: Cytotoxicity assay, CellTiter-Glo Luminescent Cell Viability Assay, Ramos; conditions: 72 h, read-out: IC50 value of Luminescent Cell Viability Assay
[3] = tested on: Jurkat CD4^+ (human T lymphocyte cells); assay: Cytotoxicity assay, CellTiter-Glo Luminescent Cell Viability Assay, Jurkat; conditions: 72 h, read-out: IC50 value of Luminescent Cell Viability Assay
Description: In vitro cytotoxicity assay was conducted for 3 days with the CD4 enriched Jurkat T cells and treated with various amounts of drugs using CellTiter-Glo® Luminescent Cell Viability Assay Kit (Promega, G7571). The assay was performed following the manufacturer's instructions. Briefly, cells were plated in 96-well plates at […] in 100 μl RPMI 1640 medium with 10% heat-inactivated Fetal Bovine Serum. The following day, a serial ten-fold dilution for eight points of drugs (Romidepsin, TMB-355-ADC, and TMB-355) was used. The final concentration in the test was ranging from 1×10^3 nM to 1×10^−4 nM for Romidepsin, from 6.67×10^2 nM to 6.67×10^−5 nM for TMB-355-ADC and TMB-355. The cells were then incubated at 37° C. for 72 h. Subsequently, 100 μL/well of CellTiter-Glo reagent was added and the cells were shaken for 2 minutes and then incubated for an additional 10 minutes at room temperature. After the incubation time, luminescence (light) was measured in a luminometer (Clariostar: BMG, Buckinghamshire, UK). The IC50 corresponds to the drug concentration which achieves 50% activity of untreated control cultures. IC50 values were calculated using the software package Prism 6.0 (GraphPad Software Inc., San Diego, Calif.) with variable slope option.

HDAC [4] = assay: Cellular HDAC enzymatic assay (FLUOR DE LYS HDAC fluorometric cellular activity assay) in Ramos B lymphocyte cells
Description: as §1

What does the source list for TMB-355?
pIC50 (HDAC [1]; Jurkat CD4^+ (human T lymphocyte cells), 3 days; read-out: IC50 value of Cellular HDAC enzymatic assay): < 6.18; pIC50 ([2]; Ramos (human B lymphocyte)): < 6.18; pIC50 ([3]; Jurkat CD4^+ (human T lymphocyte cells)): < 6.18; pIC50 (HDAC [4]; Ramos (human B lymphocyte), 3 days; read-out: IC50 value of Cellular HDAC enzymatic assay): < 6.18

What does the source list for `C/C=C1\NC(=O)[C@H]2CSSCC/C=C/[C@H](CC(=O)N[C@H](C(C)C)C(=O)N2)OC(=O)[C@H](C(C)C)NC1=O` [Romidepsin]?
pIC50 (HDAC [1]; read-out: IC50 value of Cellular HDAC enzymatic assay; Jurkat CD4^+ (human T lymphocyte cells), 3 days): 8.80; pIC50 ([2]; Homo sapiens, Ramos): 8.66; pIC50 ([3]; Homo sapiens, Jurkat): 8.80; pIC50 (HDAC [4]; read-out: IC50 value of Cellular HDAC enzymatic assay; Ramos (human B lymphocyte), 3 days): 8.41
